According to patent US20040197315A1, “Dopaminergic cell lines stably expressing A53T alpha-synuclein and methods of using same” (priority 2002, published 2004):
Where a SMILES comes first, the peptide text is derived from it. The star is where a group is joined. Cbz = O=C(OCc1ccccc1)*

Experiments:
[1] = target: T1, proteasome (Rattus norvegicus, UniProt P28075); test: Assay for chymotrypsin-like activity of the proteasome in PC12 cell lysates (LLVY-AFC substrate); format: cell-based; conditions: cells treated overnight with 0.5 μM inhibitor; lysate assayed with 100 μM LLVY-AFC, 37° C., 10 min
T1 construct: endogenous in cells; host or cells: rat PC12 clonal lines (empty vector, or stably expressing human wild-type or A53T alpha-synuclein)
T1 sequence (P28075 60-263): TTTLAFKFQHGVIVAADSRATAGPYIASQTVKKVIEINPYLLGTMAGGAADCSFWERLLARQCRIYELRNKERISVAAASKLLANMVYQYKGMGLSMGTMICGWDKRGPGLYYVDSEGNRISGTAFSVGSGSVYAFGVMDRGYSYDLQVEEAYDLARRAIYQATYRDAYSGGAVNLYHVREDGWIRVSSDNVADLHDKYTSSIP
Procedure: Cells from the different lines were triturated off the dish, centrifuged, and washed in PBS. The resulting pellets were resuspended in 200-500 μl of lysis buffer (10 mM Tris-HCl, pH 7.8, with 1 mM ATP, and 10% glycerol) (Figueiredo-Pereira et al., A new inhibitor of the chymotrypsin-like activity of the multicatalytic proteinase complex (20S proteasome) induces accumulation of ubiquitin-protein conjugates in a neuronal cell. J. Neurochem., 63:1578-1581, 1994). The cells were left for 20 min on ice and then lysed with 30 strokes of a Dounce homogenizer. The lysates were then centrifuged at 10,000×g for 10 min. Fifty micrograms of protein of the resulting supernatants was included in an assay buffer of 100 mM Tris-HCl, pH 8.0, 2 mM CaCl2, 1 mM ATP, and a 100 μM concentration of the fluorogenic substrate LLVY-7-amino-4-trifluoromethyl coumarin (AFC) (Enzyme Systems Products, Livermore, Calif.) in a total final volume of 1 ml. The assay was performed at 37° C. for 10 min (Figueiredo-Pereira et al., 1994, supra). The activity was then measured in a SLM 8000 fluorometer, with assay buffer without lysate as blank. The activity was linear with respect to the amount of protein (in the range of 25-200 μg of protein).

[2] = test system: PC12 cell lines expressing A53T mutant α-synuclein; test: Trypan blue assay of cell death in mutant A53T α-synuclein PC12 lines; format: cell-based, rat; conditions: 50 μM, data not shown
Procedure: The day before the trypan blue assay, subconfluent cultures were rinsed twice with complete medium to remove cells at late stages of degeneration. The following day the cells were triturated off the dish and five drops of the cellular suspension were added in a tube together with five drops of Trypan blue solution (0.4%; Sigma-Aldrich, St. Louis, Mo.). After light mixing, the cells were placed on a glass slide, coverslipped, and visualized under 20× magnification. For each line, three fields of 100 cells each were assessed for the percentage of Trypan blue-positive cells. The results reported are the mean±SEM (n=3).
To test for potential involvement of caspases in cellular degeneration associated with expression of A53T α-synuclein, control, wild-type, and mutant lines were examined for basal caspase-3-like activity, as measured by cleavage of the fluorogenic substrate DEVD-AFC (15 μM; Enzyme Systems Products, Livermore, Calif.). No difference was found in basal activity among cell lines (data not shown). […] It can be concluded that PC12 cell lines expressing A53T mutant α-synuclein display enhanced cellular degeneration that appears nonapoptotic by morphological and biochemical criteria.

Molecule	chymotrypsin-like proteasomal activity remaining in lysates of treated cells [1]	effect on percentage of Trypan blue-positive cells [2]
CC(C)C[C@@H](C=O)NC(=O)[C@H](CC(C)C)NC(=O)[C@H](CC(C)C)NC(=O)OCc1ccccc1 [MG132] (Cbz-Leu-Leu-Leu-aldehyde)	< 5%	–
Boc-aspartate-fluoromethyl ketone	–	did not affect
